Values quoted from earlier work, collected in US20160279133A1 (Farmalider, S.A., priority 2015, published 2016).
Where a name gives a salt, the structure may show the parent alone.

Assays:
[1] = system: male sexual dysfunction; settings: administered orally

SMILES | efficacy in the treatment of male sexual dysfunction [1] | solubility in water
CCCc1nn(C)c2c(=O)[nH]c(-c3cc(S(=O)(=O)N4CCN(C)CC4)ccc3OCC)nc12 [Sildenafil, 5-[2-ethoxy-5-(4-methylpiperazin-1-yl-sulfonyl)phenyl]-1-methyl-3-n-propyl-1,6-dihydro-7H-pyrazolo[4,3-d]pyrimidin-7-one] | effective treatment | 
CCCc1nn(C)c2c(=O)[nH]c(-c3cc(S(=O)(=O)N4CCN(C)CC4)ccc3OCC)nc12 [Sildenafil citrate] |  | relatively insoluble
